# Tests used:
# [1] = target: T1, rat TRPA1 (Rattus norvegicus, UniProt Q6RI86); test: Calcium influx (Fluo-4 fluorimetric) agonist assay in HEK293 cells transfected with rTRPA1; format: cell-based; conditions: for EC50: half-maximal increase in [Ca2+]i, read-out: Potency EC50; for Efficacy: maximum [Ca2+]i elevation as % of allylisothiocyanate (AITC) at 100 μM
# T1 construct: expressed in transfected cells
# Procedure: (§1) HEK-293 cells stably over-expressing recombinant rat TRPA1, TRPM8, TRPV2-4, TRPM8 or human TRPV1 were selected by Geneticin 600 μg mL^−1, grown on 100-mm diameter Petri dishes as monolayers in minimum essential medium supplemented with non-essential amino acids, 10% fetal bovine serum, and 2 mM glutamine, and maintained under 5% CO2 at 37 °C. Stable expression of each channel was checked by quantitative real time-PCR. The effect of the substances on intracellular Ca^2+ concentration [Ca^2+]i was determined using Fluo-4, a selective intracellular fluorescent probe for Ca^2+. Toward this aim, on the day of the experiment, cells over-expressing the TRP channels were loaded for 1 h in the dark at room temperature with the methyl ester Fluo4-AM (4 μM in DMSO containing 0.02% Pluronic F-127, Invitrogen, Carlsbad, CA, USA) in minimum essential medium without fetal bovine serum. After the loading, cells were washed twice in Tyrode’s buffer (145 mM NaCl, 2.5 mM KCl, 1.5 mM CaCl2, 1.2 mM MgCl2, 10 mM D-glucose, and 10 mM HEPES, pH 7.4), re-suspended in Tyrode’s buffer, and transferred (about 100,000 cells) to the quartz cuvette of the spectrofluorimeter (Perkin-Elmer LS50B; PerkinElmer Life and Analytical Sciences, Waltham, MA, USA) under continuous stirring. [Ca^2+]i was determined before and after the addition of various concentrations of test compounds by measuring cell fluorescence at 25 °C (λEX = 488 nm, λEM = 516 nm). Curve fitting (sigmoidal dose-response variable slope) and parameter estimation were performed with GraphPad Prism® (GraphPad Software Inc., San Diego, CA, USA). Potency was expressed as the concentration of test substances exerting a half-maximal agonist effect (i.e., half-maximal increases in [Ca^2+]i (EC50), calculated by using GraphPad®. The efficacy of the agonists was first determined by normalizing their effect to the maximum Ca^2+ influx effect on [Ca^2+]i observed with application of 4 μM ionomycin (Sigma, St. Louis, MO, USA). The increases in fluorescence in wild-type HEK293 cells (i.e., not transfected with any construct) were used as baseline and subtracted from the values obtained from transfected cells. The effects of TRPA1 agonists are expressed as a percentage of the effect obtained with 100 μM allyl isothiocyanate (AITC). Antagonist/desensitizing behavior was evaluated for TRPA1 by adding the test compounds in the quartz cuvette 5 min before stimulation of cells with the agonist AITC (100 μM). Data are expressed as the concentration exerting a half maximal inhibition of agonist-induced [Ca^2+]i elevation (IC50), which was calculated again using GraphPad Prism® software. The effect on [Ca^2+]i exerted by agonist alone was taken as 100%. Dose-response curves were fitted by a sigmoidal regression with variable slope. All determinations were at least performed in triplicate. Statistical analysis of the data was performed by analysis of variance at each point using ANOVA followed by Bonferroni’s test.
# [2] = target: T1, rat TRPA1; test: Antagonist/desensitizing assay: inhibition of AITC (100 μM)-induced [Ca2+]i elevation in rTRPA1-HEK293 cells; format: cell-based; conditions: compound added 5 min before stimulation with AITC 100 μM; HEK293 cells transfected with rTRPA1; read-out: IC50 inh TRPA1 (AITC 100 μM)
# Procedure: as §1, with “Potency was expressed as the concentration of test substances exerting a half-maximal agonist effect (i.e., half-maximal increases in [Ca^2+]i (EC50), calculated by using GraphPad®. The efficacy of the agonists was first determined by normalizing their effect to the maximum Ca^2+ influx effect on [Ca^2+]i observed with application of 4 μM ionomycin (Sigma, St. Louis, MO, USA). The increases in fluorescence in wild-type HEK293 cells (i.e., not transfected with any construct) were used as baseline and subtracted from the values obtained from transfected cells. The effects of TRPA1 agonists are expressed as a percentage of the effect obtained with 100 μM allyl isothiocyanate (AITC).” left out, “The effect on [Ca^2+]i exerted by agonist alone was taken as 100%. Dose-response curves were fitted by a sigmoidal regression with variable slope. All determinations were at least performed in triplicate. Statistical analysis of the data was performed by analysis of variance at each point using ANOVA followed by Bonferroni’s test.” left out
# T1 sequence (Q6RI86 whole entry): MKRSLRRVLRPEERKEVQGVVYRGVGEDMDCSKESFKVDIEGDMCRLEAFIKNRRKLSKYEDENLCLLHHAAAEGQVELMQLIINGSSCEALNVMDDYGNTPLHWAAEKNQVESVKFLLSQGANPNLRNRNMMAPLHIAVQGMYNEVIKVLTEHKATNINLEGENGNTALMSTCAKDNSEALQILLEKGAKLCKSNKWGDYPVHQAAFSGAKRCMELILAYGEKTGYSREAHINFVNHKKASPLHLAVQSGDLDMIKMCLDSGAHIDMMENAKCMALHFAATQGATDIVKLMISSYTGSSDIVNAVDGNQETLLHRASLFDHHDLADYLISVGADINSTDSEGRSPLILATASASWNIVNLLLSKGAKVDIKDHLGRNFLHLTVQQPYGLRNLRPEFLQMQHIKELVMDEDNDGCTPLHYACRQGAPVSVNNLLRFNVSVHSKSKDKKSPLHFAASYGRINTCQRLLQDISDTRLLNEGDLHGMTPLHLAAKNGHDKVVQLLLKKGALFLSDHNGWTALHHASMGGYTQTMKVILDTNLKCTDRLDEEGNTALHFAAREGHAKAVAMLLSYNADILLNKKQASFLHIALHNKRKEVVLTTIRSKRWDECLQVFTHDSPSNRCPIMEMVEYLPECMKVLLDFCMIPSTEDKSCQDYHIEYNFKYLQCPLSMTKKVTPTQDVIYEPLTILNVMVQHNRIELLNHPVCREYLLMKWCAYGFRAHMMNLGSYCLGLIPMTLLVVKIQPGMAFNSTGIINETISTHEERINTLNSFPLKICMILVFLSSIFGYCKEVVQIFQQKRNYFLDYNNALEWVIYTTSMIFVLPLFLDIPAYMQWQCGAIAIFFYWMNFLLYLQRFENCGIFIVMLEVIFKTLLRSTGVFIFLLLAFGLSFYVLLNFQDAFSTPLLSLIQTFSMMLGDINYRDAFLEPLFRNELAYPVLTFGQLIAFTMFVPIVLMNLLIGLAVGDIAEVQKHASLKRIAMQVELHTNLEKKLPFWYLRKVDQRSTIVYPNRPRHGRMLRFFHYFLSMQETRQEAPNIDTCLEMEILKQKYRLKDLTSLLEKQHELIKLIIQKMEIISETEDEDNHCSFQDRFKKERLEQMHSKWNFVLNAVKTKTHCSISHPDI
EC50 [1],Efficacy [1],Efficacy ([1]; listed as 5),Efficacy ([1]; listed as 4),Efficacy ([1]; listed as 3),SMILES,IC50 [2]
20.3 ± 3.2 µM,81.0 ± 3.3 % AITC,about 80 % AITC,–,–,"CCCC#CC#CCCc1cccc(=O)o1 [Echinophorin A (5), echinophorin A]",45.7 ± 3.5 µM
25 ± 3 µM,82.0 ± 2.8 % AITC,–,about 80 % AITC,–,"C/C=C\C#CC#CCCc1cccc(=O)o1 [Echinophorin B (4), echinophorin B]",37.2 ± 0.8 µM
30.9 ± 2.8 µM,51.7 ± 1.3 % AITC,–,–,about 52 % AITC,"CC#CC#CC#CCCc1cccc(=O)o1 [Echinophorin D (3), echinophorin D]",87 ± 1.5 µM
